This is an account of results in ChEMBL document CHEMBL2074252, “The specific bisindolylmaleimide PKC-inhibitor GF 109203X efficiently modulates MRP-associated multiple drug resistance” (Biochem Biophys Res Commun, 1995).

SMILES strings stand for the structures.

The target in the series is Multidrug resistance-associated protein 1 (Homo sapiens, UniProt P33527). Description: TP_TRANSPORTER: inhibition of Rhodamine 123 efflux (R123: 0.8 ug/mL, GF109203X: 10 uM) in HL60/AR cells. The format is functional, cell-based.
Chain of Multidrug resistance-associated protein 1 (P33527 whole entry): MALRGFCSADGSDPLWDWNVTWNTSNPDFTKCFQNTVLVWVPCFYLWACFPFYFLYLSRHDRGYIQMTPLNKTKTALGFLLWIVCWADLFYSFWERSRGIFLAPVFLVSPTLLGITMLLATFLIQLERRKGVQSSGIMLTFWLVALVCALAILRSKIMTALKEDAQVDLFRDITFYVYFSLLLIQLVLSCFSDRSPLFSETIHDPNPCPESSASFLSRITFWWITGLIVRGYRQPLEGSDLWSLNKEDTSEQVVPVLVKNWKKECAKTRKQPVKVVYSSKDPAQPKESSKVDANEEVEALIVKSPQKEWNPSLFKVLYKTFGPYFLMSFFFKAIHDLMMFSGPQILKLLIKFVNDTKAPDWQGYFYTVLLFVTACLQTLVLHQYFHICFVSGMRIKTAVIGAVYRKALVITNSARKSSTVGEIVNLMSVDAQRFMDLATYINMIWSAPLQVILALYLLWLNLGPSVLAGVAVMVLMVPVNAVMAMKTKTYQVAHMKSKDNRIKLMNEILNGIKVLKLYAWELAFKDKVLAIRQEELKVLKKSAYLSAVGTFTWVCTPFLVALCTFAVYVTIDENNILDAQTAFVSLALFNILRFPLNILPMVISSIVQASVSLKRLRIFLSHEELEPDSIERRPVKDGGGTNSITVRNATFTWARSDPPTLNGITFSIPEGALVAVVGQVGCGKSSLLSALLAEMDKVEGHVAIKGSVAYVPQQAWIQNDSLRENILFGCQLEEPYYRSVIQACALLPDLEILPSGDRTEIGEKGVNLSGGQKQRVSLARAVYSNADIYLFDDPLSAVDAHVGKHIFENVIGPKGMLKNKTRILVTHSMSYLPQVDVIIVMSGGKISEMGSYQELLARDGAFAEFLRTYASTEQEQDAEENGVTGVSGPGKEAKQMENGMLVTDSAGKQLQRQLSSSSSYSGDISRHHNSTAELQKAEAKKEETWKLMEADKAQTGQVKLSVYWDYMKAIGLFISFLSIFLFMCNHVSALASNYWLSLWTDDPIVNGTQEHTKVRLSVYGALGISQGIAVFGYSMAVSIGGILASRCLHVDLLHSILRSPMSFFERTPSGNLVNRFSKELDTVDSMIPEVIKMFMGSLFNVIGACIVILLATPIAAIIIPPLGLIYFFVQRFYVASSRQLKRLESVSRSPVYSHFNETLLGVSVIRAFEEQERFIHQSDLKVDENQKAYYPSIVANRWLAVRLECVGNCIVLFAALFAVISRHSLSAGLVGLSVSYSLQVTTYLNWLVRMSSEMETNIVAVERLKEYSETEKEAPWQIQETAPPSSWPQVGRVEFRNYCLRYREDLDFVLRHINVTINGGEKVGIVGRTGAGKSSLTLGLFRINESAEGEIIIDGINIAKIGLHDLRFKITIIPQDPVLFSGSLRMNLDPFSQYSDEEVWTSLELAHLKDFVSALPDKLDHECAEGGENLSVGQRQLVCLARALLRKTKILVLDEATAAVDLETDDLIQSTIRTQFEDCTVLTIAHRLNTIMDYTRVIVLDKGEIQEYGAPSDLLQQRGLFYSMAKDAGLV

Consider `CN(C)CCCn1cc(C2=C(c3c[nH]c4ccccc34)C(=O)NC2=O)c2ccccc21` [GF-109203], for which the Activity entry was “inhibitor [+]”.
